Reference: patent publication US20170362228A1, “TETRAHYDRO-PYRIDO[3,4-b]INDOLE ESTROGEN RECEPTOR MODULATORS AND USES THEREOF” (Genentech, Inc., priority 2016, published 2017)

Assays:
[1] = tested on: immature rat uterus; experiment: Immature Uterine Wet Weight Assay, agonist mode (Example 906); assay type: in vivo; conditions: dosed PO, QD×3
Experimental: Female immature CD-IGS rats (21 days old upon arrival) are treated for three days. Animals are dosed daily for three days. For Antagonist Mode, Vehicle or test compound is administered orally by gavage followed 15 minutes later by an oral dose of 0.1 mg/kg Ethynyl Estradiol. For Agonist Mode, Vehicle or test compound is administered orally by gavage. On the fourth day 24 hours after dose, plasma is collected for pharmacokinetic analysis. Immediately following plasma collection, the animals are euthanized and the uterus removed and weighed.
Uteri and ovaries from 2 animals per group are fixed in 10% neutral buffered formalin and paraffin embedded, sectioned and stained for H&E (SDPath). Stained tissues are analyzed and read by a board certified pathologist. […]
Mice were treated with Formula I compounds (1R,3R)-1-(2,6-difluoro-4-((1-(3-fluoropropyl)azetidin-3-yl)oxy)phenyl)-2-(2-fluoro-2-methylpropyl)-3-methyl-2,3,4,9-tetrahydro-1H-pyrido[3,4-b]indole 101 and (1R,3R)-1-(2,6-difluoro-4-(2-(3-(fluoromethyl)azetidin-1-yl)ethoxy)phenyl)-2-(2-fluoro-2-methylpropyl)-3-methyl-2,3,4,9-tetrahydro-1H-pyrido[3,4-b]indole 102, tamoxifen, fulvestrant, AZD9496 (WO 2014/191726, Example 1, page 74; U.S. Pat. No. 9,155,727), and two controls: Vehicle and Vehicle plus ethynyl estradiol (EE). […] Uterine Wet Weight (UWW): Body Weight ratios were calculated. […]

[2] = biological target: T1, estrogen receptor alpha (ESR1) (Homo sapiens, UniProt P03372); experiment: Breast Cancer Cell ERa High Content Fluorescence Imaging Degradation Assay (Example 901); assay type: cell-based; conditions: Table 1b; MCF7 breast cancer cells, 4 hours; plateau of the maximal effect
T1 construct: endogenous in cells; host or cells: MCF7 breast cancer cells
T1 sequence (P03372 1-595): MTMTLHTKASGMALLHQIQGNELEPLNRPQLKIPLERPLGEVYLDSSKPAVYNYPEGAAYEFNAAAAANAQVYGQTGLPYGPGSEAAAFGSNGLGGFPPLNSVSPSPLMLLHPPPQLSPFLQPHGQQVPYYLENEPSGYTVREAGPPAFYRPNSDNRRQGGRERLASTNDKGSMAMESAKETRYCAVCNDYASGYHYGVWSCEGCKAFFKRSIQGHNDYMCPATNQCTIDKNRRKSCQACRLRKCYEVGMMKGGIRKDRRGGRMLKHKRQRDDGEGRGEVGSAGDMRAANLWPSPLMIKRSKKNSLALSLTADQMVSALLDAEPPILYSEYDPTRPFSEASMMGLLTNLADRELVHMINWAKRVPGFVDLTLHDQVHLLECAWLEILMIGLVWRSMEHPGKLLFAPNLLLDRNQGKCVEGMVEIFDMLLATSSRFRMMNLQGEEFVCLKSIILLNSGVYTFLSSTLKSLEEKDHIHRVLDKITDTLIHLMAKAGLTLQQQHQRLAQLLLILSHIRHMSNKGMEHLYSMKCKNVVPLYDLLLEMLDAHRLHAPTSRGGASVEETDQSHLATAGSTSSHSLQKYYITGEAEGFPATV
Method in brief: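 MCF7 cells in phenol red-free RPMI with 10% charcoal-stripped FBS, exposed to compound at 0.05–835 nM (10-point, 1.8×, duplicate; 0.84% DMSO) for 4 h at 37 °C. Fixed cells immunostained for ESR1 (F10 mAb, Alexa 488) with Hoechst nuclear mask; nuclear ESR1 intensity imaged per cell. DMSO and 5 nM fulvestrant set 0%/100%; EC50 and Sinf by robust fit.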

[3] = tested on: MCF7 cells; experiment: In vitro cell proliferation assays (Examples 902 and 903), MCF7; assay type: cell-based; conditions: Homo sapiens, MCF7, Table 1b, read-out: ER-alpha MCF7 HCS (EC50)

SMILES	activity in agonist mode UWW assay [1]	ER-alpha MCF7 HCS (S inf) [2]	EC50 [3]
C[C@@H]1Cc2c([nH]c3ccccc23)[C@@H](c2c(F)cc(/C=C/C(=O)O)cc2F)N1CC(C)(C)F [AZD9496]	partial agonist		
C[C@@H]1Cc2c([nH]c3ccccc23)[C@@H](c2ccc([C@@H](O)C3CN(CCCF)C3)c(F)c2F)N1CC(F)(F)CO [Compound 174, 3-((1R,3R)-1-(2,3-difluoro-4-((S)-(1-(3-fluoropropyl)azetidin-3-yl)(hydroxy)methyl)phenyl)-3-methyl-1,3,4,9-tetrahydro-2H-pyrido[3,4-b]indol-2-yl)-2,2-difluoropropan-1-ol]		−97%	0.071 nM
COc1cc([C@@H]2c3[nH]c4ccccc4c3C[C@@H](C)N2CC(F)(F)CO)ccc1[C@H](O)C1CN(CCCF)C1 [Compound 175, 2,2-difluoro-3-((1R,3R)-1-(4-((R)-(1-(3-fluoropropyl)azetidin-3-yl)(hydroxy)methyl)-3-methoxyphenyl)-3-methyl-1,3,4,9-tetrahydro-2H-pyrido[3,4-b]indol-2-yl)propan-1-ol]		−96%	0.63 nM
COc1cc([C@@H]2c3[nH]c4ccccc4c3C[C@@H](C)N2CC(F)(F)CO)ccc1[C@@H](O)C1CN(CCCF)C1 [Compound 176, 2,2-difluoro-3-((1R,3R)-1-(4-((S)-(1-(3-fluoropropyl)azetidin-3-yl)(hydroxy)methyl)-3-methoxyphenyl)-3-methyl-1,3,4,9-tetrahydro-2H-pyrido[3,4-b]indol-2-yl)propan-1-ol]		−81%	5.8 nM
